Laboratory results from ChEMBL document CHEMBL1158636, “Discovery of a novel sulfonamide-pyrazolopiperidine series as potent and efficacious gamma-secretase inhibitors (Part II)” (Bioorg Med Chem Lett, 2010).

Key:
[1] = Inhibition of gamma-secretase-mediated APP cleavage assessed as amyloid beta40 level after 2 hrs by ELISA
[2] = Inhibition of gamma-secretase-mediated notch cleavage after 2 hrs by ELISA
Gamma-secretase = assay: Inhibition of gamma-secretase-mediated notch cleavage in human SNC cells by ELISA; type: cell-based
[3] = Oxidative metabolic stability in human liver microsomes assessed as compound remaining at 2 uM after 30 mins in presence of 1 mM UDPGA; type: ADME, Microsome; conditions: liver microsomes, read-out: Stability
[4] = Oxidative metabolic stability in human liver microsomes assessed as compound remaining at 1 uM after 30 mins in presence of 1 mM NADPH; type: ADME, Microsome; conditions: liver microsomes, read-out: Stability
[5] = molecular target: Gamma-secretase (Homo sapiens) (UniProt Q96BI3+Q9NZ42+Q8WW43+P49768+Q92542+P49810); assay: Inhibition of gamma-secretase-mediated APP cleavage in human SNC cells by ELISA; type: cell-based

Row | Structure (SMILES) | IC50 [1] [nM] | IC50 [2] [nM] | IC50 (Gamma-secretase) [nM] | remaining at 0.5 h, 2 µM [3] [%] | remaining at 0.5 h, 1 µM [4] [%] | ED50 [5] [nM]
1 | O=C1c2[nH]ncc2C(C2CC2)N(S(=O)(=O)c2ccc(C(F)(F)F)nc2)C12CC2 (racemic) [4'-CYCLO PROPYL-5'-(6-(TRIFLUORO METHYL)PYRIDIN-3-YL SULFONYL)-4',5'-DIHYDROSPIRO[CYCLOPROPANE-1,6'-PYRAZOLO[4,3-C]PYRIDIN]-7'(1'H)-ONE (ENANTIOMERIC MIX)] | 1.8 | 35 | 688 | 91 | 86 | –
2 | O=C1c2[nH]ncc2C(C2CC2)N(S(=O)(=O)c2ccc(C(F)(F)F)cc2)C12CC2 (racemic) | 1.9 | 69 | 995 | 84 | 85 | 11
3 | O=S(=O)(c1ccc(C(F)(F)F)cc1)N1CC(F)(F)c2[nH]ncc2C1C(F)(F)F (racemic) | 0.9 | 10 | 403 | 35 | 84 | 4
4 | O=C1c2[nH]ncc2[C@@H](C2CC2)N(S(=O)(=O)c2ccc(C(F)(F)F)nc2)[C@H]1C1CC1 (relative stereo) | 0.3 | 10 | 6700 | 75 | 77 | 130
5 | O=C1c2[nH]ncc2C(C2CC2)N(S(=O)(=O)c2ccc(C(F)(F)F)cn2)C12CC2 (racemic) [4'-CYCLOPROPYL-5'-(5-(TRIFLUORO METHYL)PYRIDIN-2-YL SULFONYL)-4',5'-DIHYDROSPIRO[CYCLOPROPANE-1,6'-PYRAZOLO[4,3-C]PYRIDIN]-7'(1'H)-ONE (ENANTIOMERIC MIX)] | 24 | 502 | 6210 | 89 | 76 | –
6 | C[C@@H]1N(S(=O)(=O)c2ccc(C(F)(F)F)nc2)[C@H](C2CC2)c2cn[nH]c2C1(F)F (relative stereo) | 1.2 | 20 | 358 | 59 | 79 | 6
7 | O=C1c2[nH]ncc2[C@@H](C2CC2)N(S(=O)(=O)c2ccc(C(F)(F)F)nc2)[C@@H]1C1CC1 (relative stereo) | 3 | 66 | 25100 | 87 | 21 | 374
8 | C[C@@H]1N(S(=O)(=O)c2ccc(C(F)(F)F)cc2)[C@H](C2CC2)c2cn[nH]c2C1(F)F (relative stereo) | 1 | 18 | 418 | 46 | 75 | 7
9 | O=S(=O)(c1ccc(C(F)(F)F)nc1)N1[C@@H](C2CC2)c2cn[nH]c2C(F)(F)[C@@H]1C1CC1 (stereo in doubt) | 0.3 | 3 | 34 | 61 | 53 | 0.5
10 | O=C1CN(S(=O)(=O)c2ccc(C(F)(F)F)nc2)C(C2CC2)c2cn[nH]c21 (racemic) | 5.6 | 193 | > 40000 | 42 | 5 | 6000
11 | O=S(=O)(c1ccc(C(F)(F)F)nc1)N1[C@H](C2CC2)c2cn[nH]c2C(F)(F)[C@H]1C1CC1 (stereo in doubt) | 0.1 | 3 | 13 | 41 | 43 | 0.2
12 | O=S(=O)(c1ccc(C(F)(F)F)nc1)N1[C@@H](C2CC2)C(F)(F)c2[nH]ncc2[C@H]1C1CC1 (stereo in doubt) | 0.8 | 47 | 304 | 67 | 71 | 3
13 | O=C1c2[nH]ncc2C(C2CC2)N(S(=O)(=O)c2ccc(C(F)(F)F)nc2)C1C1CCOCC1 (racemic) | 1 | 19 | 187 | 64 | 57 | 1

Results, then the compound that gave them:

Row | IC50 [1] [nM] | IC50 [2] [nM] | IC50 (Gamma-secretase) [nM] | remaining at 0.5 h, 2 µM [3] [%] | remaining at 0.5 h, 1 µM [4] [%] | ED50 [5] [nM] | Structure (SMILES)
14 | 2.6 | 51 | > 40000 | 6 | 1 | > 10000 | O=C1CN(S(=O)(=O)c2ccc(C(F)(F)F)cc2)C(C(F)(F)F)c2cn[nH]c21 (configuration not stated)
15 | 0.3 | – | 546 | 77 | 6 | 6 | CC[C@@H]1C(=O)c2[nH]ncc2[C@H](CC)N1S(=O)(=O)c1ccc(Cl)cc1 (stereo in doubt)
16 | 0.4 | 21 | 2790 | 76 | 67 | 21 | O=C1c2[nH]ncc2C(C2CC2)N(S(=O)(=O)c2ccc(C(F)(F)F)cc2)C1C1CC1 (racemic)
17 | 0.8 | 36 | 2360 | 83 | 57 | 21 | CC[C@@H]1c2cn[nH]c2C(=O)[C@H](CC)N1S(=O)(=O)c1ccc(C(F)(F)F)nc1 (relative stereo)
18 | 0.6 | 21 | > 40000 | 59 | 72 | > 10000 | C[C@H]1C(=O)c2[nH]ncc2[C@@H](C2CC2)N1S(=O)(=O)c1ccc(C(F)(F)F)nc1 (relative stereo)
19 | 0.1 | 5 | 288 | 65 | 10 | 5 | CC[C@@H]1c2cn[nH]c2C(=O)[C@H](CC)N1S(=O)(=O)c1ccc(Cl)cc1 (stereo in doubt)
20 | 3.7 | 91 | > 40000 | 71 | 12 | 4000 | CC(C)[C@@H]1c2cn[nH]c2C(=O)CN1S(=O)(=O)c1ccc(Cl)cc1
21 | 13.2 | 144 | 18300 | 91 | 67 | 1100 | C[C@@H]1c2cn[nH]c2C(=O)[C@H](C)N1S(=O)(=O)c1ccc(C(F)(F)F)nc1 (stereo in doubt)
22 | 0.5 | 12 | > 40000 | 67 | 62 | 2340 | CC1C(=O)c2[nH]ncc2C(C2CC2)N1S(=O)(=O)c1ccc(C(F)(F)F)cc1 (configuration not stated)
23 | 6.8 | 89 | > 40000 | 77 | 63 | 5110 | CC1C(=O)c2[nH]ncc2C(C)N1S(=O)(=O)c1ccc(C(F)(F)F)cc1 (configuration not stated)
24 | 0.7 | 12 | 574 | 42 | 2 | 11 | CC(C)C1c2cn[nH]c2C(F)(F)CN1S(=O)(=O)c1ccc(Cl)cc1 (racemic)
25 | 7.3 | 268 | 2660 | 67 | 68 | 60 | CC1(C)C(=O)c2[nH]ncc2C(C2CC2)N1S(=O)(=O)c1ccc(C(F)(F)F)cc1 (racemic)
26 | 0.2 | 6 | 71 | 66 | 8 | – | CC(C)(C)C1C(=O)c2[nH]ncc2C(C2CC2)N1S(=O)(=O)c1ccc(C(F)(F)F)nc1 (stereo in doubt; 3t) [6-TERT-BUTYL-4-CYCLOPROPYL-5-(6-(TRIFLUOROMETHYL)PYRIDIN-3-YLSULFONYL)-5,6-DIHYDRO-1H-PYRAZOLO[4,3-C]PYRIDIN-7(4H)-ONE (STRUCTURAL MIX)]
